Target: PD-1/PD-L1 (Homo sapiens, UniProt Q9NZQ7)
Assay: TR-FRET PD-1/PD-L1 binding inhibition at the molecular level (free proteins)
Conditions: Tag1-PD-L1 and Tag2-PD-1 proteins, twelve concentrations from 200 nM, 2 hours at room temperature, read-out: FRET assay (IC50)
Outline: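 HTRF read-out at 665/620 nm after 2 h at room temperature. Detection used anti-Tag1 Eu cryptate plus anti-Tag2 XL665 antibodies. Tagged PD-L1 and PD-1 proteins were pre-mixed with compound across twelve […] 1:2 dilutions starting at 200 nM.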

Sequence of PD-1/PD-L1 (Q9NZQ7 19-238 limits assumed): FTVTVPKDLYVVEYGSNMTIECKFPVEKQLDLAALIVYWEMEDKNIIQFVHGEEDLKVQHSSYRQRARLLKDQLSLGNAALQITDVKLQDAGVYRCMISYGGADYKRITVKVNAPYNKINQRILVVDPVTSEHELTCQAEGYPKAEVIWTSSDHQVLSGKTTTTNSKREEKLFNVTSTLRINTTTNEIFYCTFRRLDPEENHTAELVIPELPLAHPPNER

`O=C(Nc1cccc(-c2cccc(Nc3nc(C(F)(F)F)nc4cccnc34)c2Cl)c1Cl)c1cc2n(n1)CCC[C@H]2N1CC[C@@H](O)C1` [Compound 334, (R)-N-(2,2'-dichloro-3'-((2-(trifluoromethyl)pyrido[3,2-d]pyrimidin-4-yl)amino)-[1,1'-biphenyl]-3-yl)-4-((R)-3-hydroxypyrrolidin-1-yl)-4,5,6,7-tetrahydropyrazolo[1,5-a]pyridine-2-carboxamide] and `O=C(Nc1cccc(-c2cccc(Nc3nc(C(F)(F)F)nc4cc(CN5CC[C@@H](O)C5)cnc34)c2Cl)c1Cl)c1cc2n(n1)CCC[C@@H]2N1CC[C@@H](O)C1` [Compound 338, (S)-N-(2,2'-dichloro-3'-((7-(((R)-3-hydroxypyrrolidin-1-yl)methyl)-2-(trifluoromethyl)pyrido[3,2-d]pyrimidin-4-yl)amino)-[1,1'-biphenyl]-3-yl)-4-((R)-3-hydroxypyrrolidin-1-yl)-4,5,6,7-tetrahydropyrazolo[1,5-a]pyridine-2-carboxamide] fall in the same range of IC50: 10 to 100 nM for the first, 10 to 100 nM for the second.

`COc1cc(/C(F)=C/c2cccc(-c3cccc(NC(=O)c4cc5n(n4)CCC[C@@H]5N4CC[C@@H](O)C4)c3Cl)c2Cl)ncc1CN1CC[C@@H](O)C1` [Compound 335, (S)-N-(2,2'-dichloro-3'-((Z)-2-fluoro-2-(5-(((R)-3-hydroxypyrrolidin-1-yl)methyl)-4-methoxypyridin-2-yl)vinyl)-[1,1'-biphenyl]-3-yl)-4-((R)-3-hydroxypyrrolidin-1-yl)-4,5,6,7-tetrahydropyrazolo[1,5-a]pyridine-2-carboxamide] and `O=C(Nc1cccc(-c2cccc(Nc3nc(C(F)(F)F)nc4cc(CN5CC[C@@H](O)C5)cnc34)c2Cl)c1Cl)c1cc2n(n1)CCC[C@H]2N1CC[C@@H](O)C1` [Compound 339, (R)-N-(2,2'-dichloro-3'-((7-(((R)-3-hydroxypyrrolidin-1-yl)methyl)-2-(trifluoromethyl)pyrido[3,2-d]pyrimidin-4-yl)amino)-[1,1'-biphenyl]-3-yl)-4-((R)-3-hydroxypyrrolidin-1-yl)-4,5,6,7-tetrahydropyrazolo[1,5-a]pyridine-2-carboxamide] fall in the same range of IC50: 10 to 100 nM for the first, 10 to 100 nM for the second.

`O=C(Nc1cccc(-c2cccc(Nc3nc(C(F)(F)F)nc4cc(CN5CC[C@@H](O)C5)cnc34)c2Cl)c1Cl)c1cc2n(n1)CCC[C@@H]2N1CCC(C(=O)O)CC1` [Compound 336, 1-((S)-2-((2,2'-dichloro-3'-((7-(((R)-3-hydroxypyrrolidin-1-yl)methyl)-2-(trifluoromethyl)pyrido[3,2-d]pyrimidin-4-yl)amino)-[1,1'-biphenyl]-3-yl)carbamoyl)-4,5,6,7-tetrahydropyrazolo[1,5-a]pyridin-4-yl)piperidine-4-carboxylic acid] and `O=C(Nc1cccc(-c2cccc(Nc3nc(C(F)(F)F)nc4cc(CN5CC[C@@H](O)C5)cnc34)c2Cl)c1Cl)c1cc2n(n1)CCC[C@H]2N1CCC(C(=O)O)CC1` [Compound 337] fall in the same range of IC50: 10 to 100 nM for the first, 10 to 100 nM for the second.

`CC(C)(N[C@H]1CCCn2nc(C(=O)Nc3cccc(-c4cccc(Nc5nc(C(F)(F)F)nc6cc(CN7CC[C@@H](O)C7)cnc56)c4Cl)c3Cl)cc21)C(=O)O` [Compound 340, 2-(((S)-2-((2,2'-dichloro-3'-((7-(((R)-3-hydroxypyrrolidin-1-yl)methyl)-2-(trifluoromethyl)pyrido[3,2-d]pyrimidin-4-yl)amino)-[1,1'-biphenyl]-3-yl)carbamoyl)-4,5,6,7-tetrahydropyrazolo[1,5-a]pyridin-4-yl)amino)-2-methylpropanoic acid] and `CC(C)(N[C@@H]1CCCn2nc(C(=O)Nc3cccc(-c4cccc(Nc5nc(C(F)(F)F)nc6cc(CN7CC[C@@H](O)C7)cnc56)c4Cl)c3Cl)cc21)C(=O)O` [Compound 341, 2-(((R)-2-((2,2'-dichloro-3'-((7-(((R)-3-hydroxypyrrolidin-1-yl)methyl)-2-(trifluoromethyl)pyrido[3,2-d]pyrimidin-4-yl)amino)-[1,1'-biphenyl]-3-yl)carbamoyl)-4,5,6,7-tetrahydropyrazolo[1,5-a]pyridin-4-yl)amino)-2-methylpropanoic acid] fall in the same range of IC50: 10 to 100 nM for the first, 10 to 100 nM for the second.

`Cc1c(NC(=O)c2cc3n(n2)CCC[C@@H]3N2CCC(C(=O)O)CC2)cccc1-c1cccc(Nc2nc(C(F)(F)F)nc3cc(CN4CC[C@@H](O)C4)cnc23)c1C` [Compound 342, 1-((S)-2-((3'-((7-(((R)-3-hydroxypyrrolidin-1-yl)methyl)-2-(trifluoromethyl)pyrido[3,2-d]pyrimidin-4-yl)amino)-2,2'-dimethyl-[1,1'-biphenyl]-3-yl)carbamoyl)-4,5,6,7-tetrahydropyrazolo[1,5-a]pyridin-4-yl)piperidine-4-carboxylic acid] and `Cc1c(NC(=O)c2cc3n(n2)CCC[C@@H]3N2CC[C@@H](O)C2)cccc1-c1cccc(Nc2nc(C(F)(F)F)nc3cc(CN4CC[C@@H](O)C4)cnc23)c1C` [Compound 344] fall in the same range of IC50: 10 to 100 nM for the first, 10 to 100 nM for the second.

`Cc1c(NC(=O)c2cc3n(n2)CCC[C@H]3N2CC[C@@H](O)C2)cccc1-c1cccc(Nc2nc(C(F)(F)F)nc3cc(CN4CC[C@@H](O)C4)cnc23)c1C` [Compound 345] and `CN[C@H]1CCCn2nc(C(=O)Nc3cccc(-c4cccc(Nc5nc(C(F)(F)F)nc6cc(CN7CC[C@@H](O)C7)cnc56)c4Cl)c3Cl)cc21` [Compound 352, (S)-N-(2,2'-dichloro-3'-((7-(((R)-3-hydroxypyrrolidin-1-yl)methyl)-2-(trifluoromethyl)pyrido[3,2-d]pyrimidin-4-yl)amino)-[1,1'-biphenyl]-3-yl)-4-(methylamino)-4,5,6,7-tetrahydropyrazolo[1,5-a]pyridine-2-carboxamide] fall in the same range of IC50: 10 to 100 nM for the first, 10 to 100 nM for the second.

`CN[C@H]1CCCn2nc(C(=O)Nc3cccc(-c4cccc(Nc5nccc6cc(CN7CC[C@@H](O)C7)cnc56)c4C)c3C)cc21` [Compound 346, (S)-N-(3'-((3-(((R)-3-hydroxypyrrolidin-1-yl)methyl)-1,7-naphthyridin-8-yl)amino)-2,2'-dimethyl-[1,1'-biphenyl]-3-yl)-4-(methylamino)-4,5,6,7-tetrahydropyrazolo[1,5-a]pyridine-2-carboxamide] and `CN[C@@H]1CCCn2nc(C(=O)Nc3cccc(-c4cccc(Nc5nccc6cc(CN7CC[C@@H](O)C7)cnc56)c4C)c3C)cc21` [Compound 347, (R)-N-(3'-((3-(((R)-3-hydroxypyrrolidin-1-yl)methyl)-1,7-naphthyridin-8-yl)amino)-2,2'-dimethyl-[1,1'-biphenyl]-3-yl)-4-(methylamino)-4,5,6,7-tetrahydropyrazolo[1,5-a]pyridine-2-carboxamide] cannot be ordered by IC50: less than 10 nM for the first, less than 10 nM for the second.

Compared with `CN[C@H]1CCCn2nc(C(=O)Nc3cccc(-c4cccc(NC(=O)c5ccc(CN6CC[C@@H](O)C6)cn5)c4C)c3C)cc21` [Compound 348, (S)-N-(3'-(5-(((R)-3-hydroxypyrrolidin-1-yl)methyl)picolinamido)-2,2'-dimethyl-[1,1'-biphenyl]-3-yl)-4-(methylamino)-4,5,6,7-tetrahydropyrazolo[1,5-a]pyridine-2-carboxamide], `CN[C@@H]1CCCn2nc(C(=O)Nc3cccc(-c4cccc(NC(=O)c5ccc(CN6CC[C@@H](O)C6)cn5)c4C)c3C)cc21` [Compound 349, (R)-N-(3'-(5-(((R)-3-hydroxypyrrolidin-1-yl)methyl)picolinamido)-2,2'-dimethyl-[1,1'-biphenyl]-3-yl)-4-(methylamino)-4,5,6,7-tetrahydropyrazolo[1,5-a]pyridine-2-carboxamide] is higher in IC50: less than 10 nM for the first, 10 to 100 nM for the second.

`CN[C@H]1CCCn2nc(C(=O)Nc3cccc(-c4cccc(NC(=O)c5ccc(CN6CC[C@@H](O)C6)cn5)c4Cl)c3Cl)cc21` [Compound 350, (S)-N-(2,2'-dichloro-3'-(5-(((R)-3-hydroxypyrrolidin-1-yl)methyl)picolinamido)-[1,1'-biphenyl]-3-yl)-4-(methylamino)-4,5,6,7-tetrahydropyrazolo[1,5-a]pyridine-2-carboxamide] and `CN[C@@H]1CCCn2nc(C(=O)Nc3cccc(-c4cccc(NC(=O)c5ccc(CN6CC[C@@H](O)C6)cn5)c4Cl)c3Cl)cc21` [Compound 351, (R)-N-(2,2'-dichloro-3'-(5-(((R)-3-hydroxypyrrolidin-1-yl)methyl)picolinamido)-[1,1'-biphenyl]-3-yl)-4-(methylamino)-4,5,6,7-tetrahydropyrazolo[1,5-a]pyridine-2-carboxamide] fall in the same range of IC50: 10 to 100 nM for the first, 10 to 100 nM for the second.

`CN[C@@H]1CCCn2nc(C(=O)Nc3cccc(-c4cccc(Nc5nc(C(F)(F)F)nc6cc(CN7CC[C@@H](O)C7)cnc56)c4Cl)c3Cl)cc21` [Compound 353, (R)-N-(2,2'-dichloro-3'-((7-(((R)-3-hydroxypyrrolidin-1-yl)methyl)-2-(trifluoromethyl)pyrido[3,2-d]pyrimidin-4-yl)amino)-[1,1'-biphenyl]-3-yl)-4-(methylamino)-4,5,6,7-tetrahydropyrazolo[1,5-a]pyridine-2-carboxamide] and `CN[C@H]1CCCn2nc(C(=O)Nc3cccc(-c4cccc(Nc5nc(C(F)F)nc6cc(CN7CC[C@@H](O)C7)cnc56)c4Cl)c3Cl)cc21` [Compound 354, (S)-N-(2,2'-dichloro-3'-((2-(difluoromethyl)-7-(((R)-3-hydroxypyrrolidin-1-yl)methyl)pyrido[3,2-d]pyrimidin-4-yl)amino)-[1,1'-biphenyl]-3-yl)-4-(methylamino)-4,5,6,7-tetrahydropyrazolo[1,5-a]pyridine-2-carboxamide] fall in the same range of IC50: 10 to 100 nM for the first, 10 to 100 nM for the second.

`CN[C@@H]1CCCn2nc(C(=O)Nc3cccc(-c4cccc(Nc5nc(C(F)F)nc6cc(CN7CC[C@@H](O)C7)cnc56)c4Cl)c3Cl)cc21` [Compound 355, (R)-N-(2,2'-dichloro-3'-((2-(difluoromethyl)-7-(((R)-3-hydroxypyrrolidin-1-yl)methyl)pyrido[3,2-d]pyrimidin-4-yl)amino)-[1,1'-biphenyl]-3-yl)-4-(methylamino)-4,5,6,7-tetrahydropyrazolo[1,5-a]pyridine-2-carboxamide] was tested, and the IC50 was 10 to 100 nM.
